# Data as given in paper PMC4658208 (Journal of medicinal chemistry, 2015).
# pIC50: −log10 of the molar value.
# Columns and labels:
# H. influenzae acrB = experiment: Antibacterial activity; assay type: cell-based, Haemophilus influenzae; details: efflux-negative strain
# [1] = logD7.4
# [2] = test system: rabbit reticulocytes, eukaryotic TT; experiment: Eukaryotic TT assay using rabbit reticulocytes; assay type: biochemical; details: read-out: IC50 eukaryotic TT assay, data not shown
# [3] = equilibrium solubility
# [4] = test system: S30 extracts of E. coli, coupled Transcription-Translation (RNA polymerase); details: high-throughput screen hit; cited from earlier work
# [5] = test system: S30 extracts of E. coli, coupled Transcription-Translation (RNA polymerase)
# [6] = cited from earlier work
compound,measurement,setting,value
"3,5-dimethyl-N-(2-(4-(4-methylbenzyl)piperidin-1-yl)-3,4-dioxocyclobut-1-enyl)isoxazole-4-sulfonamide [compound 1]",MIC H. influenzae acrB,H. influenzae acrB,200 µM
same,logD,[1],0.1
same,pIC50,[2],< 4.00
same,Solubility,[3],>1000 µM
same,"half maximal inhibitory concentration (IC50), TT assay",[4],sub-micromolar
same,"fu, compound fraction unbound to human plasma protein","human plasma, minimum detection level 1%",<1%
same,pIC50,"[5]; read-out: IC50 Eco-TT, E. coli coupled transcription-translation assay",6.55
"O=c1c(NS(=O)(=O)c2ccccc2)c(N2CCC(Cc3ccccc3)CC2)c1=O [compound 2, N-(2-(4-benzylpiperidin-1-yl)-3,4-dioxocyclobut-1-enyl)benzenesulfonamide]",reduction in activity/potency in the TT assay,[5]; compared to compound 1,7 fold
"Cc1nn(C(F)F)cc1S(=O)(=O)Nc1c(N2CCC(Cc3ccccc3)CC2)c(=O)c1=O [compound 3, N-(2-(4-benzylpiperidin-1-yl)-3,4-dioxocyclobut-1-enyl)-1-(difluoromethyl)-3-methyl-1H-pyrazole-4-sulfonamide]","biochemical activity in TT assay, in words",[5],biochemically active
"Cc1noc(C)c1C(=O)Nc1c(N2CCC(Cc3ccccc3)CC2)c(=O)c1=O [compound 4, N-(2-(4-benzylpiperidin-1-yl)-3,4-dioxocyclobut-1-enyl)-3,5-dimethylisoxazole-4-carboxamide]","biochemical activity in TT assay, in words",[5],inactive
"Cc1noc(C)c1S(=O)(=O)Nc1c(N2CCC(C)CC2)c(=O)c1=O [compound 5, 3,5-dimethyl-N-(2-(4-methylpiperidin-1-yl)-3,4-dioxocyclobut-1-enyl)isoxazole-4-sulfonamide]","biochemical activity in TT assay, in words",[5],inactive
"Cc1noc(C)c1S(=O)(=O)Nc1c(N2CCC(c3ccccc3)CC2)c(=O)c1=O [compound 6, N-(3,4-dioxo-2-(4-phenylpiperidin-1-yl)cyclobut-1-enyl)-3,5-dimethylisoxazole-4-sulfonamide]","biochemical activity in TT assay, in words",[5],much less active
"Cc1noc(C)c1S(=O)(=O)Nc1c(N2CCC(NCc3ccc(C(F)(F)F)cc3)CC2)c(=O)c1=O [compound 14, N-(3,4-dioxo-2-(4-(4-(trifluoromethyl)benzylamino)piperidin-1-yl)cyclobut-1-enyl)-3,5-dimethylisoxazole-4-sulfonamide]",improvement of free fraction (fu),compound 14 versus compound 8,7 fold
same,reduction of free fraction,compound 14 versus compound 13,four
"Cc1noc(C)c1S(=O)(=O)Nc1c(N2CCC(N(C)CC3CCCCC3)CC2)c(=O)c1=O [compound 17, N-(2-(4-((cyclohexylmethyl)(methyl)amino)piperidin-1-yl)-3,4-dioxocyclobut-1-enyl)-3,5-dimethylisoxazole-4-sulfonamide]","biochemical activity in TT assay, in words",[5],inactive
myxopyronin,"plasma protein binding, in words",[6],highly plasma protein bound
